# Molecular target: FGFR2 (Homo sapiens, UniProt P21802)
# Experiment: FGFR wild type enzyme assay (HTRF KinEASE-TK), FGFR2
# Conditions: Enz FGFR2 (nM), FGFR2 wild type enzyme assay
# Chain of FGFR2 (P21802 399-821 limits assumed): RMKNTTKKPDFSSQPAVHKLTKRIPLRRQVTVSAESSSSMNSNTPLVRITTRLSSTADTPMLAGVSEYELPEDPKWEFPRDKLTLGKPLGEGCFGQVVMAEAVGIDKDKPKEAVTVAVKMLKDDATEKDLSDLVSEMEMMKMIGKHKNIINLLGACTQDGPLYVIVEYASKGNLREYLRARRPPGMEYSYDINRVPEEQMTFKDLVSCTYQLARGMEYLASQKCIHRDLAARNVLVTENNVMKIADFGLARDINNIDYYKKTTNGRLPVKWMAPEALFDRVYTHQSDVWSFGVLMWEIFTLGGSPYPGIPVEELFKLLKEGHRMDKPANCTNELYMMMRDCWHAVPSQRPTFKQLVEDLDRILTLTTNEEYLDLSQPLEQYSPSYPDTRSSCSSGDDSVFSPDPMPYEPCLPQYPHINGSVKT
row,Structure (SMILES),IC50 [nM]
1,"[2H]C([2H])([2H])n1cc(-c2cc(Sc3ccccc3C#N)c3c(C#N)cnn3c2)cn1 [Example 641, 4-((2-cyanophenyl)thio)-6-(1-(methyl-d3)-1H-pyrazol-4-yl)pyrazolo[1,5-a]pyridine-3-carbonitrile]",1
2,"Cn1cc(-c2cc(Sc3ccccc3C#N)c3c(C#N)cnn3c2)c(N)n1 [Example 642, 6-(3-amino-1-methyl-1H-pyrazol-4-yl)-4-((2-cyanophenyl)thio)pyrazolo [1,5-a]pyridine-3-carbonitrile]",2
3,Cc1c(-c2cc(Sc3ccccc3C#N)c3c(C#N)cnn3c2)cnn1[C@@H]1CCNC(=O)C1 [Example 643],3
4,Cc1c(-c2cc(Sc3ccccc3C#N)c3c(C#N)cnn3c2)cnn1[C@H]1CCNC(=O)C1 [Example 644],1.6
5,CC(=O)NC1CCN(c2ccc(-c3cc(Sc4ccc(F)cc4C#N)c4c(C#N)cnn4c3)cn2)C1 (stereo not shown) [Example 645],1.6
6,"N#Cc1cc(F)ccc1Sc1cc(-c2ccc(N3CCOC(CO)C3)nc2)cn2ncc(C#N)c12 (stereo not shown) [Example 646, 4-((2-cyano-4-fluorophenyl)thio)-6-(6-(2-(hydroxymethyl)morpholi-no)pyridin-3-yl)pyrazolo[1,5-a]pyridine-3-carbonitrile]",1
7,"CN1C[C@@H](n2cc(-c3cc(Sc4ccccc4C#N)c4c(C#N)cnn4c3)cn2)CCC1=O [Example 647, (S)-4-((2-cyanophenyl)thio)-6-(1-(1-methyl-6-oxopiperidin-3-yl)-1H-pyrazol-4-yl)pyrazolo[1,5-a]pyridine-3-carbonitrile]",1
8,"N#Cc1ccccc1Sc1cc(-c2ccc(N3CCO[C@@H](CO)C3)nc2)cn2ncc(C#N)c12 [Example 648, (R)-4-((2-cyanophenyl)thio)-6-(6-(2-(hydroxymethyl)morpholi-no)pyridin-3-yl)pyrazolo[1,5-a]pyridine-3-carbonitrile]",0.6
9,"N#Cc1ccccc1Sc1cc(-c2ccc(N3CCO[C@H](CO)C3)nc2)cn2ncc(C#N)c12 [Example 649, (S)-4-((2-cyanophenyl)thio)-6-(6-(2-(hydroxymethyl)morpholi-no)pyridin-3-yl)pyrazolo[1,5-a]pryidine-3-carbonitrile]",0.5
10,"N#Cc1ccccc1Sc1cc(-c2cnn(CC[C@@H](O)CO)c2)cn2ncc(C#N)c12 [Example 650, (R)-4-((2-cyanophenyl)thio)-6-(1-(3,4-dihydroxybutyl)-1H-pyrazol-4-yl)pyrazolo[1,5-a]pyridine-3-carbonitrile]",1
11,"N#Cc1ccccc1Sc1cc(-c2cnn(CC(=O)N3CC[C@H](O)C3)c2)cn2ncc(C#N)c12 [Example 651, (S)-4-((2-cyanophenyl)thio)-6-(1-(2-(3-hydroxypyrrolidin-1-yl)-2-oxoethyl)-1H-pyrazol-4-yl)pyrazolo[1,5-a]pyridine-3-carbonitrile]",1
12,"N#Cc1ccccc1Sc1cc(-c2cnn(CC(=O)N3CC[C@@H](O)C3)c2)cn2ncc(C#N)c12 [Example 652, (R)-4-((2-cyanophenyl)thio)-6-(1-(2-(3-hydroxypyrrolidin-1-yl)-2-oxoethyl)-1H-pyrazol-4-yl)pyrazolo[1,5-a]pyridine-3-carbonitrile]",1
13,"CC(C)(O)CCn1cc(-c2cc(Sc3ccccc3C#N)c3c(C#N)cnn3c2)cn1 [Example 653, 4-((2-cyanophenyl)thio)-6-(1-(3-hydroxy-3-methylbutyl)-1H-pyrazol-4-yl)pyrazolo[1,5-a]pyridine-3-carbonitrile]",1
14,"N#Cc1cnn2cc(-c3ccc(N4C[C@H](O)[C@@H](O)C4)nc3)cc(Sc3ncccc3F)c12 [Example 654, 6-(6-((3S,4S)-3,4-dihydroxypyrrolidin-1-yl)pyridin-3-yl)-4-((3-fluoropyridin-2-yl)thio)pyrazolo[1,5-a]pyridine-3-carbonitrile]",3
15,"N#Cc1cnn2cc(-c3ccc(N4C[C@@H](O)[C@H](O)C4)nc3)cc(Sc3ncccc3F)c12 [Example 655, 6-(6-((3R,4R)-3,4-dihydroxypyrrolidin-1-yl)pyridin-3-yl)-4-((3-fluoropyridin-2-yl)thio)pyrazolo[1,5-a]pyridine-3-carbonitrile]",3
16,"CN1CCN(c2ccc(-c3cc(Sc4ncccc4F)c4c(C#N)cnn4c3)cn2)CC1=O [Example 656, 4-((3-fluoropyridin-2-yl)thio)-6-(6-(4-methyl-3-oxopiperazin-1-yl)pyridin-3-yl)pyrazolo[1,5-a]pyridine-3-carbonitrile]",2
17,"N#Cc1cc(F)ccc1Sc1cc(-c2ccc(N3CCNC(=O)C3)nc2)cn2ncc(C#N)c12 [Example 657, 4-((2-cyano-4-fluorophenyl)thio)-6-(6-(3-oxopiperazin-1-yl)pyridin-3-yl)pyrazolo[1,5-a]pyridine-3-carbonitrile]",3

row,Structure (SMILES),IC50 [nM]
1,"CN=S1(=O)CCC(n2cc(-c3cc(Sc4ccc(F)cc4C#N)c4c(C#N)cnn4c3)cn2)CC1 (stereo not shown) [Example 658, 4-((2-cyano-4-fluorophenyl)thio)-6-(1-(1-(methylimino)-1-oxidohexahydro-1l6-thiopyran-4-yl)-1H-pyrazol-4-yl)pyrazolo[1,5-a]pyridine-3-carbonitrile]",1.5
2,"CC(=O)N1CCC(N(C)c2ccc(-c3cc(Sc4ccccc4C#N)c4c(C#N)cnn4c3)cn2)CC1 [Example 659, 6-(6-((1-acetylpiperidin-4-yl)(methyl)amino)pyridin-3-yl)-4-((2-cyanophenyl)thio)pyrazolo [1,5-a]pyridine-3-carbonitrile]",0.3
3,"N#Cc1ccccc1Sc1cc(-c2ccc(N3C[C@@H](O)[C@@H](O)C3)nc2)cn2ncc(C#N)c12 [Example 660, 4-((2-cyanophenyl)thio)-6-(6-((3R,4S)-3,4-dihydroxypyrrolidin-1-yl)pyridin-3-yl)pyrazolo[1,5-a]pyridine-3-carbonitrile]",1
4,"N#Cc1cnn2cc(-c3ccc(N4C[C@@H](O)[C@@H](O)C4)nc3)cc(Sc3ncccc3F)c12 [Example 661, 6-(6-((3R,4S)-3,4-dihydroxypyrrolidin-1-yl)pyridin-3-yl)-4-((3-fluoropyridin-2-yl)thio)pyrazolo[1,5-a]pyridine-3-carbonitrile]",2
5,"N#Cc1cnn2cc(-c3ccc(N4CCNC(=O)C4)nc3)cc(Sc3ncccc3F)c12 [Example 662, 4-((3-fluoropyridin-2-yl)thio)-6-(6-(3-oxopiperazin-1-yl)pyridin-3-yl)pyrazolo[1,5-a]pyridine-3-carbonitrile]",2
6,"CC(=O)NCCn1cc(-c2cc(Sc3ccccc3C#N)c3c(C#N)cnn3c2)cn1 [Example 663, N-(2-(4-(3-cyano-4-((2-cyanophenyl)thio)pyrazolo [1,5-a]pyridin-6-yl)-1H-pyrazol-1-yl)ethyl)acetamide]",2
7,"CC(=O)N1CCN(c2ccc(-c3cc(Sc4ccccc4C#N)c4c(C#N)cnn4c3)cn2)CC1 [Example 664, 6-(6-(4-acetylpiperazin-1-yl)pyridin-3-yl)-4-((2-cyanophenyl)thio)pyrazolo [1,5-a]pyridine-3-carbonitrile]",0.2
8,"C[C@@H]1CN(c2ccc(-c3cc(Sc4ccccc4C#N)c4c(C#N)cnn4c3)cn2)C[C@H](C)O1 [Example 665, 4-((2-cyanophenyl)thio)-6-(6-((2S,6R)-2,6-dimethylmorpholino)pyridin-3-yl)pyrazolo[1,5-a]pyridine-3-carbonitrile]",1
9,"Cc1c(-c2cc(Sc3ccc(F)cc3C#N)c3c(C#N)cnn3c2)cnn1C1CCOCC1 [Example 666, 4-((2-cyano-4-fluorophenyl)thio)-6-(5-methyl-1-(tetrahydro-2H-pyran-4-yl)-1H-pyrazol-4-y)pyrazolo[1,5-a]pyridine-3-carbonitrile]",0.6
10,"CN1C[C@H](n2cc(-c3cc(Sc4ccccc4C#N)c4c(C#N)cnn4c3)cn2)CCC1=O [Example 667, (R)-4-((2-cyanophenyl)thio)-6-(1-(1-methyl-6-oxopiperidin-3-yl)-1H-pyrazol-4-yl)pyrazolo[1,5-a]pyridine-3-carbonitrile]",1
11,"N#Cc1ccccc1Sc1cc(-c2cnn(CC[C@H](O)CO)c2)cn2ncc(C#N)c12 [Example 668, (S)-4-((2-cyanophenyl)thio)-6-(1-(3,4-dihydroxybutyl)-1H-pyrazol-4-yl)pyrazolo[1,5-a]pyridine-3-carbonitrile]",0.4
12,"CN(CCO)C(=O)Cn1cc(-c2cc(Sc3ccccc3C#N)c3c(C#N)cnn3c2)cn1 [Example 669, 2-(4-(3-cyano-4-((2-cyanophenyl)thio)pyrazolo [1,5-a]pyridin-6-yl)-1H-pyrazol-1-yl)-N-(2-hydroxyethyl)-N-methylacetamide]",1
13,"N#Cc1ccccc1Sc1cc(-c2cnn(CC(=O)N3CCNCC3)c2)cn2ncc(C#N)c12 [Example 670, 4-((2-cyanophenyl)thio)-6-(1-(2-oxo-2-(piperazin-1-yl)ethyl)-1H-pyrazol-4-yl)pyrazolo[1,5-a]pryridine-3-carbonitrile]",1
14,"CN(C)C(=O)CCn1cc(-c2cc(Sc3ccccc3C#N)c3c(C#N)cnn3c2)cn1 [Example 671, 3-(4-(3-cyano-4-((2-cyanophenyl)thio)pyrazolo [1,5-a]pyridin-6-yl)-1H-pyrazol-1-yl)-N,N-dimethylpropanamide]",0.5
15,"CNC(=O)CCn1cc(-c2cc(Sc3ccccc3C#N)c3c(C#N)cnn3c2)cn1 [Example 672, 3-(4-(3-cyano-4-((2-cyanophenyl)thio)pyrazolo [1,5-a]pyridin-6-yl)-1H-pyazol-1-yl)-N-methylpropanamide]",1
16,"N#Cc1ccccc1Sc1cc(-c2cnn(CCC(=O)N3CC[C@@H](O)C3)c2)cn2ncc(C#N)c12 [Example 673, (R)-4-((2-cyanophenyl)thio)-6-(1-(3-(3-hydroxypyrrolidin-1-yl)-3-oxopropyl)-1H-pyrazol-4-yl)pyrazolo[1,5-a]pyridine-3-carbonitrile]",0.2
17,"N#Cc1ccccc1Sc1cc(-c2cnn(CCC(=O)N3CC[C@H](O)C3)c2)cn2ncc(C#N)c12 [Example 674, (S)-4-((2-cyanophenyl)thio)-6-(1-(3-(3-hydroxypyrrolidin-1-yl)-3-oxopropyl)-1H-pyrazol-4-yl)pyrazolo[1,5-a]pyridine-3-carbonitrile]",1

# Reference: patent publication US20240270741A1 (Cogent Biosciences, Inc., priority 2023, published 2024)
